Results from US12012415B2, “Compositions and methods for the diagnosis, treatment and prevention of neoplastic and neurological disorders” (AscentGene, Inc., priority 2018, dated 2024).

Assays:
[1] = test system: hippocampal synaptic plasticity in the CA1 region; assay: In vivo electrophysiology, hippocampal CA1 LTP and DEP, Aβ1-42 AD rat model; set-up: species or system rats; settings: last 20 min, vs Aβ1-42 group
Description: Aβ1-42 (Sigma-Aldrich, St. Louis, MO, USA;) was dissolved in double-distilled water at the concentration of 5 μg/μl, and incubated at 37° C. for one week before surgery. The rats were randomly divided into four groups as Sham (n=8), Sham+AG-1601 (n=8), Aβ1-42 (n=8) and Aβ1-42+AG-1601 (n=8). The Alzheimer's disease rat models were established by intracerebroventricular (i.c.v.) injection of Aβ1-42 aggregates. The animals were anesthetized with intraperitoneal injection of pentobarbital sodium (50 mg/kg) and placed in a stereotaxic apparatus (Narishige, Japan). The head skin of the rat was opened and two small holes were drilled on both sides of skull following the coordinates: 0.8 mm posterior to bregma, +1.4 mm lateral to sagittal suture, 4.0 mm beneath the surface of brain. Aβ1-42 (2.0 μl per side) was injected bilaterally into the lateral ventricles through micro-syringe. The needle was taken out after 5 minutes of the injection to ensure the aggregates were infused completely. Rats in the Sham group underwent the same operational process, but same volumes of double-distilled water were injected instead of Aβ1-42. After surgery, all rats were injected with penicillin (100,000 U) in the hindquarter muscle to prevent infection. The animals of Sham+AG-1601 and Aβ1-42+AG-1601 groups were intravenous injection with AG-1601 (1 mg/kg), while the same volume vehicle was implemented for the other groups every day for 14 days after one week of the postoperative recovery. The rats were placed in the stereotaxic apparatus after intraperitoneal injection of 30% urethane (0.4 g/kg Sigma-Aldrich, St. Louis, MO, USA). According to our former protocols (Gao et al., 2015) the appropriate incision on the scalp was cut to expose the skull and a small hole was drilled. […] The depth of both electrodes was optimized to acquire the proper amplitude of evoked potentials. […] A test stimulus was given every 30 s to record for 20 min as baseline. Then LTP was induced by TBS (30 trains of 12 pulses at 200 Hz) and recorded every 60s for 60 min. […]

Glioma cells = assay: Cell viability assay in glioma cells versus TMZ and Carmustine; type: cell-based, human; settings: 48 hours treatment
Description: (§1) Human glioma cell lines of U251, SF539, SF295 were obtained from NCI/DTP and U87 was obtained from ATCC. U251, SF539, and SF295 cells were grown in RPMI (Gibco) medium; U87 cells were grown in EMEM medium (ATCC), all the cells culture media containing 10% FBS and 100 unit/ml of Penicillin-Streptomycin, and cells were incubated in a 37 °C/5% CO2 humidified hood. One day before chemical compounds treatment, four kinds of cells U251, SF539, SF295, and U87 were seeded in 96-well plates at 10,000 cells/well (100 μl) with triplicate. The culture medium was removed and cells were treated with a series different concentration of AG1601/in correspond fresh media. Following an additional incubation of 48 hours at 37° C./5% CO2, cells proliferation assay was performed with Cell Counting Kit-8 (Dojindo Laboratories, #CK04), added 10 μl of reagent to the cells in each well after replacing with 100 μl of fresh media, mix well, following an additional 2 to 3 hours incubation at 37° C./5% CO2, read wavelengths of OD450 nm in a 96-well plate reader (Victor 2, 1420 Multilabel counter), data analysis were performed with Excel and it is platted as relative mean OD450 nm+/−standard error of the mean.
(§2) Cells were treated with indicated content of AG-1601 for 48 hours, then followed by performance of cell viability assays. […]

U251 cells = assay: Cell viability, combination with TMZ in U251 cells; type: cell-based, human
Description: as §1, §2

Q: With `C=CC1=C(C)c2cc3[nH]c(cc4nc(cc5[nH]c(cc1n2)c(C)c5C=C)C(C)=C4CCC(=O)O)c(CCC(=O)NCCCc1ccccc1)c3C` [AG-1601, 3-(2,8,13,18-tetramethyl-3-(3-oxo-3-((3-phenylpropyl)amino)propyl)-12,17-divinylporphyrin-7-yl)propanoic acid] as the molecule, how does the “fEPSP slopes of DEP” value [1] read?
A: reversed effectively

Q: What about the “fEPSP slopes of LTP” value [1] of the same molecule?
A: significantly recovered

Q: What about the “fEPSP slopes of LTP” value ([1]; listed as AG-1061) of the same molecule?
A: augmented significantly

Q: What about the “efficacy on glioma cells compared with TMZ and Carmustine” value (Glioma cells) of the same molecule?
A: better efficacy on Glioma cells in vitro than TMZ and Carmustine

Q: And the “potentiation of the effect of TMZ” value (U251 cells)?
A: potentiates the effect of TMZ
